Where a SMILES comes first, the peptide text is derived from it. The star is where a group is joined. Cbz = O=C(OCc1ccccc1)*; CH2F = FC*

The values below come from US8193328B2, “Identification of modulators of serine protease inhibitor Kazal and their use as anti-cancer and anti-viral agents” (Philadelphia Health & Education Corporation, priority 2005, dated 2012).

In one experiment the test system is caspase 3. In words: Caspase 3 activity in S2-3 and Huh7T cells (Biovision kit). It is filed as cell-based, human. Particulars: 40 hours treatment. As to the method:
FIG. 5B. The activation of caspase 3 (CDCA) in S2-3 cells treated with etoposide but not BFA/CHX/Z-VAD. The S2-3 cell and its parental cell Huh7T were either treated with SPDCA inducer BFA/CHX/ZVAD or CDCA inducer etoposide. The caspase activity was determined after […] treatment by Caspase 3 detection kit (Biovision, Mountain View, Calif.).
The same level of apoptosis induced by etoposide in S2-3 cell and Huh7T cell was confirmed by the examination of caspase 3 activity in these cells. After 40 hours treatment, all cells were lysed in […] lysis buffer. […] lysate of each sample was analyzed for caspase 3 activity test using caspase 3 detected kits [Biovision, Mountain View, Calif.]. […] Additionally, the activity of caspase3 was not increased in the cells, in which SPDCA was induced by BFA/CHX, even by double doses [FIG. 5B, B/C/ZX2].

Another experiment has as its system HepG2.215 cells. In words: CDCA induced by etoposide in HepG2.215 cells. It is filed as cell-based, human. Particulars: data not shown. As to the method:
(§1) To study the influence of HCV replication upon SPDCA, G54 and Huh7T cells (its parent cell) were seeded in a 60 mm dish. SPDCA was induced by BFA/CHX/Z-VAD. […] The insensitivity of HCV replicon cell to SPDCA was also seen subsequently by annexin staining. Compared to the parental cells, much fewer HCV expressing cells were stained by annexin after being treated with SPDCA inducers BFA/CHX/Z-VAD [FIG. 8C, Annexin]. DNA fragmentation study also support that the HCV expressing cells were more resistant to apoptosis. 70 hours treatment of BFA/CHX/Z-VAD obviously triggered the DNA fragmentation in Huh7T cell, but not in G54 cells [FIG. 8D]. […] In contrast, both HepG2.215 and G54 are sensitive to CDCA induced by etoposide [data not shown].

In another experiment the test system is G54 cells. Kind of experiment: CDCA induced by etoposide in G54 cells. It is filed as cell-based, human. Particulars: data not shown. The method, then: as §1
Another experiment deals with S2-3 cells. Kind of experiment: Etoposide induced CDCA in S2-3 cells, annexin stain. It is filed as cell-based, human. Particulars: 400 μM etoposide, 40 hours, data not shown. The method, then: (§2) FIG. 5A. S2-3 and Huh7T cells were treated with CDCA inducer 400 μM etoposide. After 40 hours, the cells apoptosis was examined in microscope and stained with annexin.
(§3) 10^5 S2-3 and Huh7T cells were seeded in 60 mm dishes. When the cell reached 90% confluent, CDCA inducer etoposide was added. After 28-40 hours, the cell shrinkage, blebbing and detachment from culture was found in both cell lines. At the same time, the strong fluorescence stain by annexin was also observed in both cell lines [FIG. 5A]. The amount of apoptotic cells in two cell lines was very similar. Around 62% S2-3 cell was stained by annexin, while 58% of Huh7T cell was stained after 40 hours treatment [data not shown].

Another experiment deals with Huh7T cells. Kind of experiment: Etoposide induced CDCA in Huh7T cells, annexin stain. It is filed as cell-based, human. Particulars: 400 μM etoposide, 40 hours, data not shown. As to the method:
as §2, §3

The next experiment deals with SPIK RNA. In words: Northern blot of SPIK RNA in G54 HCV replicon cells after antiviral treatment. It is filed as cell-based, human. Particulars: 10^5 IU/ml overnight. As to the method:
(§4) FIG. 7A-7B. SPIK in the HCV expressing cells. SPIK RNA was detected in the cells with/without HCV replicon as before. HCV RNA was defined by the hybridization of membrane with radio-labeled probe specified HCV.
(§5) FIG. 7B—HCV replicon cells were incubated with HCV polymerase inhibitor 888 (2 mM) 2 days (Lines 3 & 4 duplicate) and 10^5 IU/ml interferon-a overnight (Lines 5 & 6 duplicate) or left untreated (Line 1 & 2 duplicate). The suppressions of HCV RNA and SPIK RNA then were analyzed by Northern blot as before. The smear detected by HCV probe under the band of HCV RNA probably was the replication form of HCV.
(§6) Over-expression of SPIK RNA in G54 cells can be abrogated by inhibition of HCV replication. Treatment of HCV replicon cells with either 2 mM of the HCV polymerase inhibitor 888 for two days or 10^5 IU/ml interferon-a overnight has reduced HCV replication by approximately 90% [FIG. 7B, lane 3-6]. This is consistent with previous reports of these antiviral agents (55, 56).
On the technique in general: Replicon systems follow genome replication, usually without infectious particles.

Another experiment has as its system HCV replication. Kind of experiment: Northern blot of HCV RNA in HCV replicon cells after antiviral treatment. It is filed as cell-based, Hepatitis C virus. Particulars: 10^5 IU/ml overnight. As to the method: as §4, §5, §6

Regarding `CC(NC(=O)C(NC(=O)OCc1ccccc1)C(C)C)C(=O)NC(CC(=O)O)C(=O)CF` (stereo not drawn) [Z-VAD] (Cbz-Val-Ala-Asp-CH2F; configuration not given here), in the experiment on caspase 3, the “caspase 3 activity” value is reported as “kept unchanged”.

In the case of `COc1cc([C@@H]2c3cc4c(cc3[C@@H](O[C@@H]3O[C@@H]5CO[C@@H](C)O[C@H]5[C@H](O)[C@H]3O)[C@H]3COC(=O)[C@H]23)OCO4)cc(OC)c1O` [etoposide], in the experiment on caspase 3, the “caspase 3 activity” value is given as “at the same level in both cells”. The “sensitivity to CDCA” value in the experiment on HepG2.215 cells and with G54 cells was “sensitive” in each case. The results for the “cells stained by annexin” value in the experiment on S2-3 cells and in the experiment on Huh7T cells were “Around 62%” and 58%, respectively.

On to interferon-a, for which, in the experiment with SPIK RNA, the SPIK level result is “correspondingly decreased with HCV RNA”. Also, the “reduction of HCV replication” value with HCV replication is “approximately 90%”.
